Measured values as given in the NIST ThermoML archive (doi:10.1016/j.tca.2004.12.012).
± gives the expanded uncertainty stated by the source.

Settings: Crystal 2; DTA

- Triple point temperature: 1114 ± 3 K
SMILES: [Br-].[Na+] [sodium bromide]
